Reference: ChEMBL document CHEMBL5543084, “Development of cannabidiol derivatives as potent broad-spectrum antibacterial agents with membrane-disruptive mechanism” (Eur J Med Chem, 2024)
≈ marks a conversion by molar mass, not a printed value.

Columns and labels:
Staphylococcus aureus [1] = test: Antibacterial activity against methicillin-resistant Staphylococcus aureus N315 assessed as inhibition of bacterial growth incubated for 24 hrs by broth dilution method; type: functional
[2] = Hemolytic activity against rabbit blood cells incubated for 1 hr relative to control; type: toxicity, cell-based, Oryctolagus cuniculus, Erythrocyte; conditions: rabbit blood cells (erythrocytes)
Staphylococcus aureus [3] = test: Antibacterial activity against methicillin-resistant Staphylococcus aureus NCTC 10442 assessed as inhibition of bacterial growth incubated for 24 hrs by broth dilution method; type: functional
Escherichia coli = test: Antibacterial activity against Escherichia coli ATCC 25922 assessed as inhibition of bacterial growth incubated for 24 hrs by broth dilution method; type: functional
Pseudomonas aeruginosa = test: Antibacterial activity against Pseudomonas aeruginosa ATCC 9027 assessed as inhibition of bacterial growth incubated for 24 hrs by broth dilution method; type: functional
Staphylococcus aureus [4] = test: Antibacterial activity against Staphylococcus aureus ATCC 29213 assessed as inhibition of bacterial growth incubated for 24 hrs by broth dilution method; type: functional
Klebsiella pneumoniae [5] = test: Antibacterial activity against Klebsiella pneumoniae ATCC 14581 assessed as inhibition of bacterial growth incubated for 24 hrs by broth dilution method; type: functional
Klebsiella pneumoniae [6] = test: Antibacterial activity against Klebsiella pneumoniae ATCC 10031 assessed as inhibition of bacterial growth incubated for 24 hrs by broth dilution method; type: functional
Acinetobacter baumannii [7] = test: Antibacterial activity against Acinetobacter baumannii ATCC 17978 assessed as inhibition of bacterial growth incubated for 24 hrs by broth dilution method; type: functional
Acinetobacter baumannii [8] = test: Antibacterial activity against Acinetobacter baumannii R2889 assessed as inhibition of bacterial growth incubated for 24 hrs by broth dilution method; type: functional

Compound	MIC (Staphylococcus aureus [1]) [µg/mL]	HC50 at 1 h [2] [µg/mL]	MIC (Staphylococcus aureus [3]) [µg/mL]	MIC (Escherichia coli) [µg/mL]	MIC (Pseudomonas aeruginosa) [µg/mL]	MIC (Staphylococcus aureus [4]) [µg/mL]	MIC (Klebsiella pneumoniae [5]) [µg/mL]	MIC (Klebsiella pneumoniae [6]) [µg/mL]	MIC (Acinetobacter baumannii [7]) [µg/mL]	MIC (Acinetobacter baumannii [8]) [µg/mL]
C=C(C)[C@@H]1CCC(C)=C[C@H]1c1c(O)cc(CCCCC)cc1O [CANNABIDIOL]	1.56 (≈ 4.96 µM)	> 200	3.12 (≈ 9.94 µM)	> 100	> 50	3.12 (≈ 9.94 µM)	> 50	> 50	> 50	> 50
C=C(C)[C@@H]1CCC(C)=C[C@H]1c1c(OCCCCNC)cc(CCCCC)cc1OCCCCNC	3.12 (≈ 6.45 µM)	107	3.12 (≈ 6.45 µM)	50 (≈ 103 µM)	> 50	3.12 (≈ 6.45 µM)	50 (≈ 103 µM)	25 (≈ 51.6 µM)	25 (≈ 51.6 µM)	25 (≈ 51.6 µM)
C=C(C)[C@@H]1CCC(C)=C[C@H]1c1c(OCCCCN(C)CCCN(C)CCCNC)cc(CCCCC)cc1OCCCCN(C)CCCN(C)CCCNC	3.12 (≈ 4.06 µM)	> 200	1.56 (≈ 2.03 µM)	3.12 (≈ 4.06 µM)	6.25 (≈ 8.12 µM)	1.56 (≈ 2.03 µM)	6.25 (≈ 8.12 µM)	6.25 (≈ 8.12 µM)	6.25 (≈ 8.12 µM)	3.12 (≈ 4.06 µM)
C=C(C)[C@@H]1CCC(C)=C[C@H]1c1c(OCC(=O)N[C@@H](CCCNC(=N)N)C(N)=O)cc(CCCCC)cc1OCC(=O)N[C@@H](CCCNC(=N)N)C(N)=O	12.5 (≈ 16.9 µM)	> 200	12.5 (≈ 16.9 µM)	> 50	50 (≈ 67.5 µM)	12.5 (≈ 16.9 µM)	> 50	> 50	50 (≈ 67.5 µM)	> 50
C=C(C)[C@@H]1CCC(C)=C[C@H]1c1c(OCCCCNC(=N)N)cc(CCCCC)cc1OCCCCNC(=N)N	0.39 (≈ 0.721 µM)	98.4	0.78 (≈ 1.44 µM)	0.78 (≈ 1.44 µM)	6.25 (≈ 11.6 µM)	0.78 (≈ 1.44 µM)	0.78 (≈ 1.44 µM)	1.56 (≈ 2.88 µM)	1.56 (≈ 2.88 µM)	0.78 (≈ 1.44 µM)
C=C(C)[C@@H]1CCC(C)=C[C@H]1c1c(OCCCCN(C)C)cc(CCCCC)cc1OCCCCN(C)C	3.12 (≈ 6.09 µM)	132	6.25 (≈ 12.2 µM)	6.25 (≈ 12.2 µM)	50 (≈ 97.5 µM)	3.12 (≈ 6.09 µM)	6.25 (≈ 12.2 µM)	6.25 (≈ 12.2 µM)	6.25 (≈ 12.2 µM)	6.25 (≈ 12.2 µM)
C=C(C)[C@@H]1CCC(C)=C[C@H]1c1c(OCC(=O)OCC)cc(CCCCC)cc1OCC(=O)OCC	> 50	> 200	> 50	> 100	> 50	> 50	> 50	> 50	> 50	> 50
C=C(C)[C@@H]1CCC(C)=C[C@H]1c1c(OCCCCCNC(=N)N)cc(CCCCC)cc1OCCCCCNC(=N)N	1.56 (≈ 2.74 µM)	60.5	0.78 (≈ 1.37 µM)	3.12 (≈ 5.49 µM)	25 (≈ 43.9 µM)	3.12 (≈ 5.49 µM)	3.12 (≈ 5.49 µM)	1.56 (≈ 2.74 µM)	3.12 (≈ 5.49 µM)	3.12 (≈ 5.49 µM)
C=C(C)[C@@H]1CCC(C)=C[C@H]1c1c(OCCCCCCCCCCBr)cc(CCCCC)cc1OCCCCCCCCCCBr	> 50	> 200	> 50	> 50	> 50	> 50	> 50	> 50	> 50	> 50
C=C(C)[C@@H]1CCC(C)=C[C@H]1c1c(OCCCCN(CC)CC)cc(CCCCC)cc1OCCCCN(CC)CC	6.25 (≈ 11 µM)	> 200	12.5 (≈ 22 µM)	> 50	> 50	6.25 (≈ 11 µM)	> 50	50 (≈ 87.9 µM)	> 50	50 (≈ 87.9 µM)
C=C(C)[C@@H]1CCC(C)=C[C@H]1c1c(OCCCCN(CCCC)CCCC)cc(CCCCC)cc1OCCCCN(CCCC)CCCC	> 50	> 200	> 50	> 100	> 50	> 50	> 50	> 50	> 50	> 50
C=C(C)[C@@H]1CCC(C)=C[C@H]1c1c(OCCCCI)cc(CCCCC)cc1OCCCCI	> 50	> 200	> 50	> 100	> 50	> 50	> 50	> 50	> 50	> 50
C=C(C)[C@@H]1CCC(C)=C[C@H]1c1c(OCC(=O)N[C@@H](CCCNC(=N)N)C(=O)N[C@@H](CCCNC(=N)N)C(=O)OC)cc(CCCCC)cc1OCC(=O)N[C@@H](CCCNC(=N)N)C(=O)N[C@@H](CCCNC(=N)N)C(=O)OC	1.56 (≈ 1.44 µM)	> 200	1.56 (≈ 1.44 µM)	50 (≈ 46.2 µM)	50 (≈ 46.2 µM)	1.56 (≈ 1.44 µM)	> 50	50 (≈ 46.2 µM)	25 (≈ 23.1 µM)	50 (≈ 46.2 µM)
C=C(C)[C@@H]1CCC(C)=C[C@H]1c1c(OCCCCCCN)cc(CCCCC)cc1OCCCCCCN	1.56 (≈ 3.04 µM)	59.7	0.78 (≈ 1.52 µM)	3.12 (≈ 6.09 µM)	> 50	1.56 (≈ 3.04 µM)	0.78 (≈ 1.52 µM)	1.56 (≈ 3.04 µM)	3.12 (≈ 6.09 µM)	3.12 (≈ 6.09 µM)
C=C(C)[C@@H]1CCC(C)=C[C@H]1c1c(OCCCCN2CCCC2)cc(CCCCC)cc1OCCCCN1CCCC1	3.12 (≈ 5.53 µM)	174	3.12 (≈ 5.53 µM)	12.5 (≈ 22.1 µM)	25 (≈ 44.3 µM)	3.12 (≈ 5.53 µM)	25 (≈ 44.3 µM)	12.5 (≈ 22.1 µM)	25 (≈ 44.3 µM)	12.5 (≈ 22.1 µM)
C=C(C)[C@@H]1CCC(C)=C[C@H]1c1c(OCCCBr)cc(CCCCC)cc1OCCCBr	> 50	> 200	> 50	> 50	> 50	> 50	> 50	> 50	> 50	> 50
C=C(C)[C@@H]1CCC(C)=C[C@H]1c1c(OCCCCCN)cc(CCCCC)cc1OCCCCCN	3.12 (≈ 6.45 µM)	65.9	1.56 (≈ 3.22 µM)	6.25 (≈ 12.9 µM)	> 50	3.12 (≈ 6.45 µM)	6.25 (≈ 12.9 µM)	6.25 (≈ 12.9 µM)	6.25 (≈ 12.9 µM)	12.5 (≈ 25.8 µM)
C=C(C)[C@@H]1CCC(C)=C[C@H]1c1c(OCC(=O)N[C@@H](CCCNC(=N)N)C(=O)OC)cc(CCCCC)cc1OCC(=O)N[C@@H](CCCNC(=N)N)C(=O)OC	1.56 (≈ 2.02 µM)	> 200	0.78 (≈ 1.01 µM)	6.25 (≈ 8.11 µM)	50 (≈ 64.9 µM)	1.56 (≈ 2.02 µM)	25 (≈ 32.4 µM)	25 (≈ 32.4 µM)	12.5 (≈ 16.2 µM)	25 (≈ 32.4 µM)
C=C(C)[C@@H]1CCC(C)=C[C@H]1c1c(OCCCCNCCC)cc(CCCCC)cc1OCCCCNCCC	3.12 (≈ 5.78 µM)	79.3	1.56 (≈ 2.88 µM)	25 (≈ 46.2 µM)	> 50	3.12 (≈ 5.78 µM)	25 (≈ 46.2 µM)	12.5 (≈ 23.1 µM)	12.5 (≈ 23.1 µM)	12.5 (≈ 23.1 µM)
C=C(C)[C@@H]1CCC(C)=C[C@H]1c1c(OCCCCCCCCCCN)cc(CCCCC)cc1OCCCCCCCCCCN	> 50	> 200	> 50	> 50	> 50	> 50	> 50	> 50	> 50	> 50
C=C(C)[C@@H]1CCC(C)=C[C@H]1c1c(OCCCCCCCCCCNC(=N)N)cc(CCCCC)cc1OCCCCCCCCCCNC(=N)N	> 50	> 200	50 (≈ 70.5 µM)	> 50	> 50	50 (≈ 70.5 µM)	> 50	> 50	> 50	> 50
C=C(C)[C@@H]1CCC(C)=C[C@H]1c1c(OCCCCN(C)CCCNC)cc(CCCCC)cc1OCCCCN(C)CCCNC	1.56 (≈ 2.49 µM)	> 200	1.56 (≈ 2.49 µM)	3.12 (≈ 4.98 µM)	3.12 (≈ 4.98 µM)	1.56 (≈ 2.49 µM)	3.12 (≈ 4.98 µM)	1.56 (≈ 2.49 µM)	1.56 (≈ 2.49 µM)	3.12 (≈ 4.98 µM)
C=C(C)[C@@H]1CCC(C)=C[C@H]1c1c(OCCCCN(CCO)CCO)cc(CCCCC)cc1OCCCCN(CCO)CCO	25 (≈ 39.5 µM)	> 200	25 (≈ 39.5 µM)	100 (≈ 158 µM)	> 50	25 (≈ 39.5 µM)	50 (≈ 79 µM)	25 (≈ 39.5 µM)	> 50	50 (≈ 79 µM)
C=C(C)[C@@H]1CCC(C)=C[C@H]1c1c(OCCCCCCBr)cc(CCCCC)cc1OCCCCCCBr	> 50	> 200	> 50	> 100	> 50	> 50	> 50	> 50	> 50	> 50
C=C(C)[C@@H]1CCC(C)=C[C@H]1c1c(OCC(=O)O)cc(CCCCC)cc1OCC(=O)O	> 50	> 200	> 50	> 50	> 50	> 50	> 50	> 50	> 50	> 50
CN[C@H](CC(C)C)C(=O)N[C@H]1C(=O)N[C@@H](CC(N)=O)C(=O)N[C@H]2C(=O)N[C@H]3C(=O)N[C@H](C(=O)N[C@H](C(=O)O)c4cc(O)cc(O)c4-c4cc3ccc4O)[C@H](O)c3ccc(c(Cl)c3)Oc3cc2cc(c3O[C@@H]2O[C@H](CO)[C@@H](O)[C@H](O)[C@H]2O[C@H]2C[C@](C)(N)[C@H](O)[C@H](C)O2)Oc2ccc(cc2Cl)[C@H]1O [VANCOMYCIN]	1.56 (≈ 1.08 µM)	> 200	1.56 (≈ 1.08 µM)	> 50		0.78 (≈ 0.538 µM)				
